Measurements from publication PMC12071598, “Piperazine-Substituted Pyranopyridines Exhibit Antiproliferative Activity and Act as Inhibitors of HBV Virion Production” (International Journal of Molecular Sciences, 2025).

Columns and labels:
GBM6138 = assay: Antiproliferative activity, MTT assay, GBM6138; format: cell-based; conditions: low-passage glioblastoma GBM6138, 72 h
GBM5522 = assay: Antiproliferative activity, MTT assay, GBM5522; format: cell-based; conditions: low-passage glioblastoma GBM5522, 72 h

| SMILES | IC50 (GBM6138) | IC50 (GBM5522) |
| --- | --- | --- |
| CC1(C)Cc2c(C#N)c(SCC(N)=O)nc(N3CCNCC3)c2CO1 [DO11-37, 2-[(5-Cyano-3,3-dimethyl-8-piperazin-1-yl-3,4-dihydro-1H-pyrano[3,4-c]pyridin-6-yl)thio]acetamide] | 571 ± 77.7 µM | 309 ± 63.3 µM |
| CC1(C)Cc2c(C#N)c(SCc3ccccc3Cl)nc(N3CCNCC3)c2CO1 [DO11-42, 6-[(2-Chlorobenzyl)thio]-3,3-dimethyl-8-piperazin-1-yl-3,4-dihydro-1H-pyrano[3,4-c]pyridine-5-carbonitrile] | 51.2 ± 10.7 µM | 4.2 ± 1.3 µM |
| COc1cccc(NC(=O)CSc2nc(N3CCNCC3)c3c(c2C#N)CC(C)(C)OC3)c1 [DO11-47, 2-[(5-Cyano-3,3-dimethyl-8-piperazin-1-yl-3,4-dihydro-1H-pyrano[3,4-c]pyridin-6-yl)thio]-N-(3-methoxyphenyl)acetamide] | 104 ± 22.1 µM | 20 ± 6.8 µM |
| COc1ccccc1NC(=O)CSc1nc(N2CCNCC2)c2c(c1C#N)CC(C)(C)OC2 [DO11-48, 2-[(5-Cyano-3,3-dimethyl-8-piperazin-1-yl-3,4-dihydro-1H-pyrano[3,4-c]pyridin-6-yl)thio]-N-(2-methoxyphenyl)acetamide] | 27.9 ± 2.6 µM | 3.8 ± 1.5 µM |
| CC(=O)c1ccc(NC(=O)CSc2nc(N3CCNCC3)c3c(c2C#N)CC(C)(C)OC3)cc1 [DO11-50, N-(4-acetylphenyl)-2-[(5-cyano-3,3-dimethyl-8-piperazin-1-yl-3,4-dihydro-1H-pyrano[3,4-c]pyridin-6-yl)thio]acetamide] | 54.7 ± 28.7 µM | 15.9 ± 4.2 µM |
| CNC(=O)c1cc(Oc2ccc(NC(=O)Nc3ccc(Cl)c(C(F)(F)F)c3)cc2)ccn1 [Sorafenib, reference compound] |  | 84 ± 14 µM |
